ChEMBL document CHEMBL6115036, “Exploration of membrane-active cephalosporin derivatives as potent antibacterial agents against Staphylococcus aureus biofilms and persisters” (Eur J Med Chem, 2025)
Converted amounts (≈) assume the structure as drawn. The source made the active and inactive calls. The calls are words filed in the database; no cut-off is given here.

What was measured:
Enterococcus faecalis = assay: Antimicrobial activity against Enterococcus faecalis incubated for 16 to 18 hrs by broth dilution assay; type: functional; conditions: time 16-18 hrs
Staphylococcus aureus [1] = assay: Antimicrobial activity against Staphylococcus aureus incubated for 16 to 18 hrs by broth dilution assay; type: functional; conditions: time 16-18 hrs
[2] = test system: Stenotrophomonas maltophilia; assay: Antimicrobial activity against Stenotrophomonas maltophilia incubated for 16 to 18 hrs by broth dilution assay; type: functional; conditions: time 16-18 hrs
Escherichia coli = assay: Antimicrobial activity against Escherichia coli incubated for 16 to 18 hrs by broth dilution assay; type: functional; conditions: time 16-18 hrs
Staphylococcus aureus [3] = assay: Induction of inner membrane permeability in Staphylococcus aureus assessed as increase in fluorescence intensity at 16 ug/ml measured for 20 mins by PI dye based analysis; type: functional, organism-based; conditions: dose 16.0 µg/ml
Staphylococcus aureus [4] = assay: Induction of cytoplasmic membrane depolarization in Staphylococcus aureus assessed as increase in fluorescence intensity at 16 ug/ml measured for 20 mins by DiSC3(5) dye based analysis; type: functional, organism-based; conditions: dose 16.0 µg/ml
[5] = Hemolytic activity in sheep red blood cells incubated for 1 hr; type: toxicity, cell-based, Ovis aries, Erythrocyte

Row | Compound | MIC (Enterococcus faecalis) [µg/mL] | MIC (Staphylococcus aureus [1]) [µg/mL] | MIC [2] [µg/mL] | MIC (Escherichia coli) [µg/mL] | Activity (Staphylococcus aureus [3]) | Activity (Staphylococcus aureus [4]) | HC50 at 1 h [5] [µg/mL]
1 | CC(=O)OCC1=C(C(=O)O)N2C(=O)[C@@H](NC(=O)c3cc[n+](C)cc3)[C@H]2SC1.[I-] | > 128 | 128 | > 128 | > 128 | – | – | –
2 | CCCC[n+]1ccc(C(=O)N[C@@H]2C(=O)N3C(C(=O)OC(c4ccccc4)c4ccccc4)=C(COC(C)=O)CS[C@H]23)cc1.[I-] | 128 | 128 | > 128 | > 128 | – | – | –
3 | C[C@@H](O)[C@H]1C(=O)N2C(C(=O)O)=C(S[C@@H]3CN[C@H](C(=O)N(C)C)C3)[C@H](C)[C@H]12 [MEROPENEM] | – | – | 0.031 (≈ 0.0808 µM) | 0.031 (≈ 0.0808 µM) | – | – | > 1280
4 | CCCCCC[n+]1ccc(-c2cc[n+](CC3=C(C(=O)OCc4ccc(OC)cc4)N4C(=O)[C@@H](NC(=O)Cc5ccccc5)[C@H]4SC3)cc2)cc1.[I-].[I-] | 64 | 0.5 | 64 | 64 | – | – | > 1280
5 | CCCCCCCCCCCCCCNC(=O)c1ccc[n+](CC2=C(C(=O)OCc3ccc(OC)cc3)N3C(=O)[C@@H](NC(=O)Cc4ccccc4)[C@H]3SC2)c1.[I-] | – | 0.25 | – | – | – | – | –
6 | CCCCCC[n+]1ccc(SCC2=C(C(=O)OCc3ccc(OC)cc3)N3C(=O)[C@@H](NC(=O)Cc4ccccc4)[C@H]3SC2)cc1.O=C([O-])C(F)(F)F | 16 | 0.063 | 64 | 64 | – | – | –
7 | CCCCCCCC[n+]1ccc(-c2cc[n+](CC3=C(C(=O)OCc4ccc(OC)cc4)N4C(=O)[C@@H](NC(=O)Cc5ccccc5)[C@H]4SC3)cc2)cc1.[I-].[I-] | 32 | 0.5 | 128 | 128 | – | – | > 1280
8 | CCCCCCCC[n+]1ccc(-c2cc[n+](CC3=C(C(=O)[O-])N4C(=O)[C@@H](NC(=O)Cc5ccccc5)[C@H]4SC3)cc2)cc1.O=C([O-])C(F)(F)F | 16 | 0.125 | 64 | 64 | – | – | > 1280
9 | CC(=O)OCC1=C(C(=O)O)N2C(=O)[C@@H](NC(=O)c3ccncc3)[C@H]2SC1 | > 128 | 16 (≈ 42.4 µM) | > 128 | > 128 | – | – | –
10 | CCCCCCCCCCNC(=O)c1cc[n+](CC2=C(C(=O)OCc3ccc(OC)cc3)N3C(=O)[C@@H](NC(=O)Cc4ccccc4)[C@H]3SC2)cc1.[I-] | – | 0.25 | – | – | Active | Active | –
11 | CCCC[n+]1ccc(SCC2=C(C(=O)O)N3C(=O)[C@@H](NC(=O)Cc4ccccc4)[C@H]3SC2)cc1.O=C([O-])C(F)(F)F | 8 | 0.063 | 8 | 4 | – | – | –
12 | CCCCNC(=O)c1ccc[n+](CC2=C(C(=O)OCc3ccc(OC)cc3)N3C(=O)[C@@H](NC(=O)Cc4ccccc4)[C@H]3SC2)c1.[I-] | – | 0.25 | – | – | – | – | –
13 | CCCC[n+]1ccc(SCC2=C(C(=O)OCc3ccc(OC)cc3)N3C(=O)[C@@H](NC(=O)Cc4ccccc4)[C@H]3SC2)cc1.O=C([O-])C(F)(F)F | 16 | 0.125 | 32 | 16 | – | – | –
14 | CCCCCC[n+]1ccc(-c2cc[n+](CC3=C(C(=O)[O-])N4C(=O)[C@@H](NC(=O)Cc5ccccc5)[C@H]4SC3)cc2)cc1.O=C([O-])C(F)(F)F | 16 | 0.125 | 16 | 16 | – | – | > 1280
15 | CCCCCC[n+]1ccc(SCC2=C(C(=O)O)N3C(=O)[C@@H](NC(=O)Cc4ccccc4)[C@H]3SC2)cc1.O=C([O-])C(F)(F)F | 8 | 0.063 | 32 | 32 | – | – | –
16 | CCCCCCCCNC(=O)c1cc[n+](CC2=C(C(=O)OCc3ccc(OC)cc3)N3C(=O)[C@@H](NC(=O)Cc4ccccc4)[C@H]3SC2)cc1.[I-] | – | 0.25 | – | – | Active | Active | –
17 | CC[n+]1ccc(SCC2=C(C(=O)O)N3C(=O)[C@@H](NC(=O)Cc4ccccc4)[C@H]3SC2)cc1.O=C([O-])C(F)(F)F | 8 | 0.063 | 8 | 8 | – | – | –
18 | CC[n+]1ccc(SCC2=C(C(=O)OCc3ccc(OC)cc3)N3C(=O)[C@@H](NC(=O)Cc4ccccc4)[C@H]3SC2)cc1.O=C([O-])C(F)(F)F | 16 | 0.125 | 16 | 16 | – | – | –
19 | CCCCCCNC(=O)c1ccc[n+](CC2=C(C(=O)OCc3ccc(OC)cc3)N3C(=O)[C@@H](NC(=O)Cc4ccccc4)[C@H]3SC2)c1.[I-] | – | 0.25 | – | – | – | – | –

Continued, in another order:

Row | MIC (Enterococcus faecalis) [µg/mL] | MIC (Staphylococcus aureus [1]) [µg/mL] | MIC [2] [µg/mL] | MIC (Escherichia coli) [µg/mL] | Compound | Activity (Staphylococcus aureus [3]) | Activity (Staphylococcus aureus [4]) | HC50 at 1 h [5] [µg/mL]
20 | – | 0.25 | – | – | CCCCCCCCCCNC(=O)c1ccc[n+](CC2=C(C(=O)OCc3ccc(OC)cc3)N3C(=O)[C@@H](NC(=O)Cc4ccccc4)[C@H]3SC2)c1.[I-] | Active | Active | –
21 | 16 (≈ 36.2 µM) | 0.063 (≈ 0.143 µM) | 64 (≈ 145 µM) | 64 (≈ 145 µM) | O=C(Cc1ccccc1)N[C@@H]1C(=O)N2C(C(=O)O)=C(CSc3ccncc3)CS[C@H]12 | – | – | –
22 | > 128 | 128 | > 128 | > 128 | CC(=O)OCC1=C(C(=O)OC(c2ccccc2)c2ccccc2)N2C(=O)[C@@H](NC(=O)c3cc[n+](C)cc3)[C@H]2SC1.[I-] | – | – | –
23 | 128 | 128 | > 128 | > 128 | CCCCCCCCCC[n+]1ccc(C(=O)N[C@@H]2C(=O)N3C(C(=O)O)=C(COC(C)=O)CS[C@H]23)cc1.[I-] | – | – | –
24 | > 128 | > 128 | > 128 | > 128 | CCCC[n+]1ccc(C(=O)N[C@@H]2C(=O)N3C(C(=O)O)=C(COC(C)=O)CS[C@H]23)cc1.[I-] | – | – | –
25 | 32 | 0.125 | 64 | 32 | CCCCNC(=O)c1cc[n+](CC2=C(C(=O)O)N3C(=O)[C@@H](NC(=O)Cc4ccccc4)[C@H]3SC2)cc1.[I-] | – | – | > 1280
26 | – | 0.25 | – | – | CCCCCCNC(=O)c1cc[n+](CC2=C(C(=O)OCc3ccc(OC)cc3)N3C(=O)[C@@H](NC(=O)Cc4ccccc4)[C@H]3SC2)cc1.[I-] | – | – | –
27 | – | 0.25 | – | – | CCCCCCCCNC(=O)c1ccc[n+](CC2=C(C(=O)OCc3ccc(OC)cc3)N3C(=O)[C@@H](NC(=O)Cc4ccccc4)[C@H]3SC2)c1.[I-] | Active | Active | –
28 | – | 0.25 | – | – | COc1ccc(COC(=O)C2=C(C[n+]3ccccc3)CS[C@@H]3[C@H](NC(=O)Cc4ccccc4)C(=O)N23)cc1.[I-] | – | – | –
29 | 16 | 0.125 | 64 | 64 | CCCCCCNC(=O)c1ccc[n+](CC2=C(C(=O)O)N3C(=O)[C@@H](NC(=O)Cc4ccccc4)[C@H]3SC2)c1.[I-] | – | – | > 1280
30 | – | 0.25 | – | – | CCCCCCCCCCCCNC(=O)c1ccc[n+](CC2=C(C(=O)OCc3ccc(OC)cc3)N3C(=O)[C@@H](NC(=O)Cc4ccccc4)[C@H]3SC2)c1.[I-] | – | – | –
31 | – | 0.25 | – | – | CCCCNC(=O)c1cc[n+](CC2=C(C(=O)OCc3ccc(OC)cc3)N3C(=O)[C@@H](NC(=O)Cc4ccccc4)[C@H]3SC2)cc1.[I-] | – | – | –
32 | 32 | 0.125 | 128 | 64 | CCCCNC(=O)c1ccc[n+](CC2=C(C(=O)O)N3C(=O)[C@@H](NC(=O)Cc4ccccc4)[C@H]3SC2)c1.[I-] | – | – | > 1280
33 | 16 | 0.125 | 64 | 64 | CCCCCCNC(=O)c1cc[n+](CC2=C(C(=O)O)N3C(=O)[C@@H](NC(=O)Cc4ccccc4)[C@H]3SC2)cc1.[I-] | – | – | > 1280
